Where a name gives a salt, the structure may show the parent alone.
Columns and labels:
[1] = test system: interferon (α); assay: Cytokine Induction in Human Cells: interferon (α) secreted by PBMCs, ELISA; assay type: cell-based; conditions: incubated 18 to 24 hours, lowest concentration found to induce interferon
Source text: (§1) An in vitro human blood cell system was used to assess cytokine induction by compounds of the invention. Activity is based on the measurement of interferon and tumor necrosis factor (α) (IFN and TNF, respectively) secreted into culture media as described by Testerman et. al. In “Cytokine Induction by the Immunomodulators Imiquimod and S-27609”, Journal of Leukocyte Biology, 58, 365–372 (September, 1995).
(§2) Whole blood is collected by venipuncture into EDTA vacutainer tubes from healthy human donors. Peripheral blood mononuclear cells (PBMCs) are separated from whole blood by density gradient centrifugation using Histopaque®-1077 (Sigma Chemicals, St. Louis, Mo.). The PBMCs are suspended at 3–4×10^6 cells/mL in RPMI 1640 medium containing 10% fetal bovine serum, 2 mM L-glutamine and 1% penicillin/streptomycin solution (RPMI complete). The PBMC suspension is added to 48 well flat bottom sterile tissue culture plates (Costar, Cambridge, Mass. or Becton Dickinson Labware, Lincoln Park, N.J.) containing an equal volume of RPMI complete media containing test compound.
(§3) The compounds are solubilized in dimethyl sulfoxide (DMSO). The DMSO concentration should not exceed a final concentration of 1% for addition to the culture wells.
(§4) The solution of test compound is added at 60 μM to the first well containing RPMI complete and serial (three fold or ten fold) dilutions are made. The PBMC suspension is then added to the wells in an equal volume, bringing the test compound concentrations to the desired range. The final concentration of PBMC suspension is 1.5–2×10^6 cells/mL. The plates are covered with sterile plastic lids, mixed gently and then incubated for 18 to 24 hours at 37° C. in a 5% carbon dioxide atmosphere.
(§5) Following incubation the plates are centrifuged for 5–10 minutes at 1000 rpm (˜200×g) at 4° C. The cell culture supernatant is removed with a sterile polypropylene pipette and transferred to sterile polypropylene tubes. Samples are maintained at −30 to −70° C. until analysis. The samples are analyzed for interferon (α) and tumor necrosis factor (α) by ELISA
Interferon (α) concentration is determined by ELISA using a Human Multi-Species kit from PBL Biomedical Laboratories, New Brunswick, N.J.
(§6) The table below lists the lowest concentration found to induce interferon and the lowest concentration found to induce tumor necrosis factor for each compound.

[2] = test system: tumor necrosis factor (α); assay: Cytokine Induction in Human Cells: tumor necrosis factor (α) secreted by PBMCs, ELISA; assay type: cell-based; conditions: incubated 18 to 24 hours, lowest concentration found to induce tumor necrosis factor
Source text: as §1, §2, §3, §4, §5
Tumor necrosis factor (α) (TNF) concentration is determined using ELISA kits available from Genzyme, Cambridge, Mass.; R&D Systems, Minneapolis, Minn.; or Pharmingen, San Diego, Calif.
as §6

Structure (SMILES): COCCc1nc2c(N)nc3c(c2n1CCCCNS(=O)(=O)c1ccc(F)cc1)CCCC3 [Example 14, N^1-{4-[4-Amino-2-(2-methoxyethyl)-6,7,8,9-tetrahydro-1H-imidazo[4,5-c]quinolin-1-yl]butyl}-4-fluoro-1-benzenesulfonamide]
- melting point: 191 to 193 °C

Structure (SMILES): Cc1nc2c(N)nc3c(c2n1CCCCNS(C)(=O)=O)CCCC3 (as salt: hydrochloride) [Example 263, N-[4-(4-amino-2-methyl-6,7,8,9-tetrahydro-1H-imidazo[4,5-c]quinolin-1-yl)butyl]methanesulfonamide hydrochloride]
- melting point: > 250 °C

Structure (SMILES): CCCCc1nc2c(N)nc3ccccc3c2n1CCCCNS(=O)(=O)c1cccc([N+](=O)[O-])c1 [Example 7, N^1-[4-(4-Amino-2-butyl-1H-imidazo[4,5-c]quinolin-1-yl)butyl]-3-nitro-1-benzenesulfonamide Hydrochloride]
- minimal effective concentration ([1]; Hydrochloride): 0.01 µM
- Lowest Effective Concentration (μM) Tumor Necrosis Factor ([2]; Hydrochloride): ** (no induction was seen at any of the tested concentrations (0.12, 0.37, 1.11, 3.33, 10 and 30 μM))

Structure (SMILES): CS(=O)(=O)NCCCCn1c(-c2ccccc2)nc2c(N)nc3ccccc3c21 [Example 16, N-[4-(4-Amino-2-phenyl-1H-imidazo[4,5-c]quinolin-1-yl)butyl]methanesulfonamide]
- melting point: 234 to 235 °C

Structure (SMILES): Cc1nc2c(N)nc3c(c2n1CCCCNS(C)(=O)=O)CCCC3 [Example 263, N-[4-(4-amino-2-methyl-6,7,8,9-tetrahydro-1H-imidazo[4,5-c]quinolin-1-yl)butyl]methanesulfonamide hydrochloride]
- minimal effective concentration ([1]; PBMC): 0.12 µM
- minimal effective concentration ([2]; PBMC): > 30 µM

Structure (SMILES): CCc1nc2c(N)nc3ccccc3c2n1CCCCNS(C)(=O)=O [Example 236, N-[4-(4-amino-2-ethyl-1H-imidazo[4,5-c]quinolin-1-yl)butyl]methanesulfonamide]
- minimal effective concentration ([1]; PBMC): 0.01 µM
- minimal effective concentration ([2]; PBMC): 0.12 µM

Structure (SMILES): CCCCc1nc2c(N)nc3ccccc3c2n1CCCCNS(=O)(=O)C[C@@]12CC[C@@H](CC1=O)C2(C)C [Example 89]
- minimal effective concentration ([1]; PBMC): 0.001 µM
- minimal effective concentration ([2]; PBMC): 1 µM

Structure (SMILES): CCCCc1nc2c(N)nc3ccccc3c2n1CCCCNS(=O)(=O)c1cccc([N+](=O)[O-])c1 (as salt: hydrochloride) [Example 7, N^1-[4-(4-Amino-2-butyl-1H-imidazo[4,5-c]quinolin-1-yl)butyl]-3-nitro-1-benzenesulfonamide Hydrochloride]
- melting point: 176 to 178.2 °C

Structure (SMILES): COCCc1nc2c(N)nc3ccccc3c2n1CCCCN1CCCS1(=O)=O [Example 266, 1-[4-(1,1-dioxidoisothiazolidin-2-yl)butyl]-2-(2-methoxyethyl)-1H-imidazo[4,5-c]quinolin-4-amine]
- melting point: 156.4 to 157.7 °C

Structure (SMILES): Nc1nc2ccccc2c2c1nc(-c1ccccc1)n2CCCCNS(=O)(=O)c1ccc(F)cc1 [Example 15, N-[4-(4-Amino-2-phenyl-1H-imidazo[4,5-c]quinolin-1-yl)butyl]-4-fluoro-1-benzenesulfonamide]
- melting point: 214 to 216 °C

Structure (SMILES): CCCCc1nc2c(N)nc3ccccc3c2n1CCCCNS(=O)(=O)c1ccc([N+](=O)[O-])cc1 (as salt: hydrochloride) [Example 9, N^1-[4-(4-Amino-2-butyl-1H-imidazo[4,5-c]quinolin-1-yl)butyl]-4-nitro-1-benzenesulfonamide Hydrochloride]
- melting point: 96 °C (dec.)

Structure (SMILES): CS(=O)(=O)NCCCCn1c(CC2CC2)nc2c(N)nc3ccccc3c21 [Example 270, N-{4-[4-amino-2-(cyclopropylmethyl)-1H-imidazo[4,5-c]quinolin-1-yl]butyl}methanesulfonamide]
- melting point: 199.7 to 200.7 °C

Structure (SMILES): COCCc1nc2c(N)nc3c(c2n1CCCCNS(C)(=O)=O)CCCC3 [Example 214, N-[4-(4-Amino-6,7,8,9-tetrahydro-2-(2-methoxyethyl)-1H-imidazo[4,5-c]quinolin-1-yl)butyl]methanesulfonamide Trifluoroacetate]
- minimal effective concentration [1]: 0.01 µM
- minimal effective concentration [2]: 10 µM

Structure (SMILES): CS(=O)(=O)NCCCCn1cnc2c(N)nc3c(c21)CCCC3 [Example 72, N-[4-(4-Amino-6,7,8,9-tetrahydro-1H-imidazo[4,5-c]quinolin-1-yl)butyl]methanesulfonamide Trifluoroacetate]
- minimal effective concentration [1]: 3.33 µM
- Lowest Effective Concentration (μM) Tumor Necrosis Factor [2]: ** (no induction was seen at any of the tested concentrations (0.12, 0.37, 1.11, 3.33, 10 and 30 μM))

Structure (SMILES): CCS(=O)(=O)NCCCCn1c(C)nc2c(N)nc3ccccc3c21 [Example 269, N-[4-(4-amino-2-methyl-1H-imidazo[4,5-c]quinolin-1-yl)butyl]ethanesulfonamide]
- melting point: 210.7 to 211.6 °C

Structure (SMILES): CCCCc1nc2c(N)nc3ccccc3c2n1CCCCNS(=O)(=O)c1ccc([N+](=O)[O-])cc1 [Example 9, N^1-[4-(4-Amino-2-butyl-1H-imidazo[4,5-c]quinolin-1-yl)butyl]-4-nitro-1-benzenesulfonamide Hydrochloride]
- minimal effective concentration ([1]; Hydrochloride): 0.04 µM
- Lowest Effective Concentration (μM) Tumor Necrosis Factor ([2]; Hydrochloride): ** (no induction was seen at any of the tested concentrations (0.12, 0.37, 1.11, 3.33, 10 and 30 μM))

Structure (SMILES): COc1ccc(Cc2nc3c(N)nc4ccccc4c3n2CCCCNS(C)(=O)=O)cc1 [Example 12, N-[4-(4-Amino-2-(4-methoxybenzyl)-1H-imidazo[4,5-c]quinolin-1-yl]butyl]methanesulfonamide]
- melting point: 78.1 to 79.5 °C

Structure (SMILES): CCCCCc1nc2c(N)nc3ccccc3c2n1CCCCNS(C)(=O)=O [Example 250, N-[4-(4-amino-2-pentyl-1H-imidazo[4,5-c]quinolin-1-yl)butyl]methanesulfonamide]
- minimal effective concentration ([1]; PBMC): 0.01 µM
- minimal effective concentration ([2]; PBMC): 0.12 µM

Structure (SMILES): CCCCc1nc2c(N)nc3ccccc3c2n1CCCCNS(=O)(=O)c1cccs1 [Example 3, N^2-[4-(4-Amino-2-butyl-1H-imidazo[4,5-c]quinolin-1-yl)butyl]-2-thiophenesulfonamide]
- melting point: 137.5 to 141.5 °C

Structure (SMILES): CCCCCc1nc2c(N)nc3ccccc3c2n1CCCCNS(=O)(=O)c1ccccc1 [Example 251, N-[4-(4-amino-2-pentyl-1H-imidazo[4,5-c]quinolin-1-yl)butyl]benzenesulfonamide]
- minimal effective concentration ([1]; PBMC): 0.12 µM
- minimal effective concentration ([2]; PBMC): 10 µM

Structure (SMILES): CCCCc1nc2c(N)nc3ccccc3c2n1CCCCNS(=O)(=O)c1cccc2cnccc12 [Example 11, N^5-[4-(4-Amino-2-butyl-1H-imidazo[4,5-c]quinolin-1-yl)butyl]-5-isoquinolinesulfonamide]
- melting point: 96 °C (dec.)

Structure (SMILES): CCCCc1nc2c(N)nc3ccccc3c2n1CCCCNS(=O)(=O)c1cccc2c(N(C)C)cccc12 [Example 1, N^1-[4-(4-Amino-2-butyl-1H-imidazo[4,5-c]quinolin-1-yl)butyl]-5-(dimethylamino)-1-naphthalenesulfonamide]
- melting point: 223 to 224 °C

Structure (SMILES): CCCCc1nc2c(N)nc3ccccc3c2n1CCNS(=O)(=O)C(F)(F)F [Example 35, N-[2-(4-Amino-2-butyl-1H-imidazo[4,5-c]quinolin-1-yl)ethyl]trifluoromethanesulfonamide Trifluoroacetate]
- minimal effective concentration [1]: 1.11 µM
- minimal effective concentration [2]: 10 µM

Structure (SMILES): CCCCc1nc2c(N)nc3ccccc3c2n1CCCCNS(=O)(=O)c1ccc(N)cc1 (as salt: hydrochloride) [Example 10, N^1-[4-(4-Amino-2-butyl-1H-imidazo[4,5-c]quinolin-1-yl)butyl]-4-amino-1-benzenesulfonamide Hydrochloride]
- melting point: 203.1 to 205 °C

Structure (SMILES): CCCCc1nc2c(N)nc3ccccc3c2n1CCCCNS(=O)(=O)Cc1ccccc1 [Example 4, N-[4-(4-Amino-2-butyl-1H-imidazo[4,5-c]quinolin-1-yl)butyl]phenylmethanesulfonamide]
- melting point: 197 to 199.5 °C

Structure (SMILES): CCCCc1nc2c(N)nc3ccccc3c2n1CCCCNS(=O)(=O)c1cccc(N)c1 (as salt: hydrochloride)
- melting point: 110.2 °C (dec.)

Structure (SMILES): CCCCc1nc2c(N)nc3ccccc3c2n1CCCCNS(=O)(=O)c1ccccc1 [Example 5, N^1-[4-(4-Amino-2-butyl-1H-imidazo[4,5-c]quinolin-1-yl)butyl]-1-benzenesulfonamide]
- melting point: 75.5 to 79 °C

— patent US7199131B2, “Sulfonamide and sulfamide substituted imidazoquinolines” (3M Innovative Properties Company, priority 2001, dated 2007)
